Data set [1] can be described thus: thymic involution in mice. The data set is classed as in vivo, mouse. Particulars: wild-type control mice; homozygous mutant mice resistant. From the text:
Homozygotes for the mutant allele are morphologically intact and fully fertile. No survival bias is conferred by the mutant allele. However, neither 11β-HSD1 mRNA nor enzyme activity (techniques as above) were detected in mutant homozygotes, and reduced mRNA and activity were detected in heterozygotes.

In data set [2] the test system is rat hippocampal cells. In words: kainic acid neurotoxicity, hippocampal cell survival. Particulars: for kainic acid neurotoxicity: pretreatment with steroid alone. Format: cell-based. The text has this: To assess the influence of 11β-reductase activity on neurotoxicity, cells were exposed to kainic acid and cell survival determined.
Data set [3] deals with T1, hepatic 11β-reductase activity (Homo sapiens, UniProt P28845).
T1 construct: from tissue; host or cells: liver of human volunteers, in vivo
T1 sequence (P28845 whole entry): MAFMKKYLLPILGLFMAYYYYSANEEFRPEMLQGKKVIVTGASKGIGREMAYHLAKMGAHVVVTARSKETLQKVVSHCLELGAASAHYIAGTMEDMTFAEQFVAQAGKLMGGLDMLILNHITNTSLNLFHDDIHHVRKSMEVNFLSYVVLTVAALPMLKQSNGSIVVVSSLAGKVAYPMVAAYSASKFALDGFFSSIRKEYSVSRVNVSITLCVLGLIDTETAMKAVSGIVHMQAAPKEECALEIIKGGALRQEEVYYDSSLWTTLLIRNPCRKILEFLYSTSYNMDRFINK
Description: conversion of oral cortisone to cortisol on first pass as index of 11β-reductase activity in vivo in man. The text has this: Consistent with the observations in animal tissues and cultured cells described above, we have established the relative activities of 11β-dehydrogenase and 11β-reductase in vivo in different organs in man by measuring the cortisol/cortisone ratio in plasma from selective venous catheterisations. In most organs the venous effluent contains cortisol and cortisone in a ratio of ˜10:1. However, in renal vein plasma the ratio is 3:1, while in hepatic vein plasma the ratio is 55:1, consistent with potent 11β-dehydrogenase activity due to 11β-HSD2 expression in the kidney and potent 11β-reductase 11β-HSD1 activity in the liver. Moreover, cortisone taken orally, and therefore delivered to the liver via the portal vein, is avidly converted on first pass to cortisol in the peripheral circulation. Using this index of 11β-reductase activity we have shown that, in addition to inhibiting renal 11β-dehydrogenase activity, carbenoxolone (but not glycyrrhetinic acid) inhibits hepatic 11β-reductase activity in vivo in man.

A short description of data set [4]: fasting plasma glucose in rats after 14 days of subcutaneous treatment. The data set is classed as in vivo, rat. Particulars: 1, 3 or 10 mg daily s.c., male Wistar Hans rats. The method, then:
Intact male Wistar Hans rats of body weight 200-250 g were treated with daily subcutaneous injection of 1 ml of either 0.9% saline (vehicle) or carbenoxolone (made up to 1, 3, or 10 mg/ml in 0.9% saline) for 14 days. They were fasted from 4 pm and blood obtained by tail-nick at 9 am the next day. Plasma glucose was measured by a glucose oxidase method on a Beckman CX-3 autoanalyser.

Data set [5] addresses T2, 5β-reductase (Homo sapiens, UniProt P51857).
T2 sequence (P51857 1-326): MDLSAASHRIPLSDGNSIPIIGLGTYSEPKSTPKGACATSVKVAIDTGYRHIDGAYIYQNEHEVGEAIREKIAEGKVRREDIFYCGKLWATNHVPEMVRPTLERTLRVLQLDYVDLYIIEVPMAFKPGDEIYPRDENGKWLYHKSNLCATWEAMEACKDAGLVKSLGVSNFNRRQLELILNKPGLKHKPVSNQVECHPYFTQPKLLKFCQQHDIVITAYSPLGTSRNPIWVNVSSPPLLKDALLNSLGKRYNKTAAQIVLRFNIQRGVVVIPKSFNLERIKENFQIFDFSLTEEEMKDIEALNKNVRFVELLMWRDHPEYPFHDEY
The following applies: reference 35; cited from earlier work.

The test system of data set [6] is adipocytes. Particulars: higher concentrations (mmol/l), without corticosteroid, reference 37; cited from earlier work.
Data set [7] can be described thus: euglycaemic hyperinsulinaemic clamp study with forearm glucose uptake in healthy male volunteers. Format: in vivo, human. Here is the method:
Seven non-obese (Body Mass Index <25) healthy male Caucasian volunteers on no medication, aged 27-36 years, were given carbenoxolone (100 mg every 8 hours orally) or matched placebo for seven days in a randomised double-blind cross-over design, with phases separated by at least 4 weeks. On the seventh day of each phase euglycaemic hyperinsulinaemic clamp studies with measurement of forearm glucose uptake were performed, as described in detail in reference 16, the content of which is incorporated herein by reference.

For data set [8], the target named is T3, 11β-reductase activity (Rattus norvegicus, UniProt P16232).
T3 construct: endogenous in cells; host or cells: primary cultures of fetal rat hippocampal cells
T3 sequence (P16232 whole entry): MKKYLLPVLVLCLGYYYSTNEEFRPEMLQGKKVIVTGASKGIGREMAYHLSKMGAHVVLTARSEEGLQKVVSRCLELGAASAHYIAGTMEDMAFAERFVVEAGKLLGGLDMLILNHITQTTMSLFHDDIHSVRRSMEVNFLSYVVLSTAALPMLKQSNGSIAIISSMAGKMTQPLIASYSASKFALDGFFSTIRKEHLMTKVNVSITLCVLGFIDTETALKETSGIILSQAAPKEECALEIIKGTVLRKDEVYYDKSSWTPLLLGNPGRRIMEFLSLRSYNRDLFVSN
Description: 11β-reductase activity in whole primary fetal hippocampal cells in culture. Format: cell-based. Particulars: 10^−6M. From the text:
Hippocampi were dissected from Wistar rat embryos on day 18.5 of pregnancy and cultured in DMEM with supplements, as described. These cells expressed 11β-HSD1 mRNA, and homogenised cells performed either 11β-dehydrogenase or 11β-reductase activity.

The test system of data set [9] is corticosteroids receptors. Particulars: reference 36; cited from earlier work.
For data set [10], the target named is T4, glucocorticoid receptors (Homo sapiens, UniProt P04150).
T4 sequence (P04150 1-777): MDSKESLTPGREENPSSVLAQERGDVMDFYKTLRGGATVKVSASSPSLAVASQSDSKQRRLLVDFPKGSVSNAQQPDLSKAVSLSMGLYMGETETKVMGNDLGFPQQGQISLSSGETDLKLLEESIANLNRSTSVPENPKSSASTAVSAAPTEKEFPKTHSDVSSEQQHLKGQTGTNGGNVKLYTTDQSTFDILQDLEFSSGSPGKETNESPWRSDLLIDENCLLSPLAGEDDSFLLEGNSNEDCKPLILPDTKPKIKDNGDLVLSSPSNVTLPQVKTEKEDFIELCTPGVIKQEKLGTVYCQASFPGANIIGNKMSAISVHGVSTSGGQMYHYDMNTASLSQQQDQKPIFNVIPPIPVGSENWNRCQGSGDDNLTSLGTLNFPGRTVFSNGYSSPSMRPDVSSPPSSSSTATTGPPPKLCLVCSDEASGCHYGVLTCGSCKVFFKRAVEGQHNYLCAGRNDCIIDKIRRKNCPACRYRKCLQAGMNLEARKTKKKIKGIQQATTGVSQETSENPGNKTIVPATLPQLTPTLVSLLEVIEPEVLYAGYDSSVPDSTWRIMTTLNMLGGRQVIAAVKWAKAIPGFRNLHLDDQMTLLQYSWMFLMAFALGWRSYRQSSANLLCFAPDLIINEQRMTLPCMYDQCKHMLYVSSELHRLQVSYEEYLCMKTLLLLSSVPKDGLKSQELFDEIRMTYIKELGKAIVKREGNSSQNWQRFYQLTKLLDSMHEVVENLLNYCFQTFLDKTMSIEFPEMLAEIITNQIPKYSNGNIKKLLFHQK
Particulars: reference 29; cited from earlier work.

The test system of data set [11] is 11β-HSD1 mRNA. In words: northern analysis of hepatic 11β-HSD1 mRNA in treated rats. The data set is classed as in vivo, rat. From the text:
(§1) Male Han Wistar rats (200-250 g) underwent gonadectomy and either bilateral adrenalectomy or sham-operation under halothane anaesthesia. For estradiol administration, silicone elastomer capsules (1.95 mm internal diameter, 3.125 mm external diameter) (Dow Corning Corporation, Midland, Mich., USA) containing 17β-estradiol (Sigma, Poole, UK) were implanted subcutaneously. For animals treated for 42 days with estradiol, the capsules were removed and replaced after 21 days. Control animals were implanted with blank capsules. Adrenalectomised rats were maintained on 0.9%. saline. Rats were killed 10, 21 or 42 days after surgery. Liver and hippocampus were removed and dissected on ice for assay of 11β-HSD activity and an aliquot of liver was frozen on dry ice and stored at −80° C. until extraction of RNA.
Total RNA was extracted from liver tissue by the guanidinium thiocyanate method, as described and resuspended in diethylpyrocarbonate-treated water. RNA concentration and purity was assayed spectrophotometrically. 20 μg aliquots were separated on a 1.2% agarose gel containing 2% formaldehyde. […] Optical density was determined using a computer-driven image analysis system (Seescan plc, Cambs, UK). Values were expressed as a percentage of control levels.

Data set [12] relates to PEPCK mRNA. Description: northern analysis of hepatic PEPCK mRNA in treated rats. The data set is classed as in vivo, rat.
Text: as §1
Total RNA was extracted from liver tissue by the guanidinium thiocyanate method, as described and resuspended in diethylpyrocarbonate-treated water. RNA concentration and purity was assayed spectrophotometrically. 20 μg aliquots were separated on a 1.2% agarose gel containing 2% formaldehyde. RNA was blotted onto nitrocellulose membranes (Hybond-N, Amersham International, UK), prehybridized in 6 ml phosphate buffer (0.2 M NaH2PO4, 0.6 M NaH2PO4, 5 mM EDTA), 3 ml 20% SDS and 100 μg denatured herring testis DNA (Sigma, Poole, UK) for 2 h at 55° C. and hybridized at 55° C. overnight in the same solution containing rat 11β-HSD1 or PEPCK cDNA, labelled with ^32P-dCTP using a random primed DNA labelling kit (Boehringer Mannheim UK Ltd., Lewes, UK). Three 20 min washes were carried out at room temperature in 1×SSC (0.3 M NaCl, 0.03 M sodium citrate), 0.1% SDS followed by a stringent wash at 55° C. for 30 min in 0.3×SSC, 0.1% SDS. Filters were exposed to autoradiographic film for 1-4 days (adjusted to ensure the signal density was within the linear range). […] Optical density was determined using a computer-driven image analysis system (Seescan plc, Cambs, UK). Values were expressed as a percentage of control levels.

The subject of data set [13] is 11β-HSD. In words: 11β-HSD activity in tissue homogenates of treated gonadectomised rats. Format: in vivo, rat.
Text: as §1
Tissues were homogenised in Krebs-Ringer bicarbonate buffer with 0.2% glucose, pH 7.4, and assayed as described previously. Homogenates (6.25 μg of liver protein, 250 μg of hippocampal protein) were incubated with 200 μM NADP (Sigma, Poole, UK) and 12 nM [^3H]-corticosterone (specific activity 84 Ci/mmol; Amersham International, Aylesbury, UK) in a total volume of 250 μl with […] 11β-dehydrogenase activity was quantified in this assay as a measure of active enzyme since 11β-reductase is unstable in homogenates. Steroids were extracted with ethyl acetate and separated by HPLC with on-line β courtier. 11β-HSD activity was expressed as conversion of corticosterone to 11-dehydrocorticosterone, after correction for apparent conversion in incubates without enzyme (<3%).

Setting [14] is: 100 mg every 8 hours orally, seven days.
Where [15] appears, read: 100 mg every 8 hours orally, seven days, healthy men.

For `C[C@]12CC(=O)[C@H]3[C@@H](CCC4=CC(=O)CC[C@@]43C)[C@@H]1CC[C@@H]2C(=O)CO` [11-dehydrocorticosterone], in data set [1], the thymic involution entry is reported as “thymic involution seen”. Moreover, the kainic acid neurotoxicity entry in data set [2] is reported as “potentiated”.
Take `CC1(C)[C@@H](OC(=O)CCC(=O)O)CC[C@]2(C)[C@H]3C(=O)C=C4[C@@H]5C[C@@](C)(C(=O)O)CC[C@]5(C)CC[C@@]4(C)[C@]3(C)CC[C@@H]12` [carbenoxolone, 3β-(3-carboxypropionyloxy)-11-oxo-olean-2-en 30-oic acid]: in [3], the “effect on 11β-reductase in vivo” value is given as “inhibits”. The “hepatic 11β-reductase activity in vivo in man” value in data set [3] (oral cortisone converted to cortisol, man) was “inhibits”. Also, the fasting glucose concentrations entry in data set [4] is given as “dose-dependent fall”. Also, the 5β-reductase inhibition entry in data set [5] is recorded as “inhibits”. Also, the “action of insulin in adipocytes” value in data set [6] is reported as “antagonises”. For the same compound, in [7] (setting [14]), the blood pressure result is recorded as “not elevated” and the forearm blood flow entry is reported as “not elevated”. In data set [7] (setting [15]), the fasting glucose concentration entry is given as “no change” and the fasting insulin concentration entry is recorded as “fall”. Also, the “plasma renin, aldosterone, and potassium concentrations” value in [7] (consequent on renal effects) is given as “suppressed”. Besides, the “peripheral glucose uptake as measured by forearm glucose uptake” value in [7] (euglycaemic clamp, day 7, versus placebo) is “No difference was detected”. Also, the “potentiating effect of 11-dehydrocorticosterone on kainic acid neurotoxicity” value in data set [2] (with 11-dehydrocorticosterone) is reported as “protected the cells”. Besides, in data set [2] (with corticosterone), the “effect of corticosterone on kainic acid neurotoxicity” value is “did not alter”. Besides, the “11β-reductase activity in whole hippocampal cells” value in [8] is “almost abolished”. Besides, the “affinity for corticosteroids receptors in vitro” value in data set [9] is “low affinity”.
In the case of `C[C@]12C[C@H](O)[C@H]3[C@@H](CCC4=CC(=O)CC[C@@]43C)[C@@H]1CC[C@@H]2C(=O)CO` [corticosterone], in data set [2], the kainic acid neurotoxicity entry is reported as “potentiated”.
Turning to `C[C@]12CCC(=O)C=C1CC[C@@H]1[C@@H]2[C@@H](O)C[C@@]2(C)[C@H]1CC[C@]2(O)C(=O)CO` [cortisol], the “affinity of glucocorticoid receptors relative to mineralocorticoid receptors” value in data set [10] was 10-40 times lower.
For `C[C@]12CC[C@@H]3c4ccc(O)cc4CC[C@H]3[C@@H]1CC[C@@H]2O` [estradiol, 17β-estradiol], in data set [11] (adrenalectomised, 21 days), the “liver 11β-HSD1 mRNA in adrenalectomised rats” value was “reduced”. For the same compound, in data set [11] (after 21 and 42 days, gonadectomised male rats), the “hepatic 11β-HSD1 mRNA expression” value is “undetectable levels”. Moreover, in [12] (adrenalectomised, 21 days, compared with adrenalectomy alone), the “PEPCK mRNA levels in adrenalectomised rats” value is listed as “increased”. For the same compound, the “hepatic PEPCK gene expression” value in data set [12] (after 21 days, adrenally intact) is listed as “decreased”. The “PEPCK mRNA expression” value in [12] (after 42 days) is “significantly reduced”. For the same compound, the “hepatic 11β-HSD activity” value in data set [13] (10, 21 and 42 days, gonadectomised male rats) is listed as “marked decreases”. In addition, the “11β-HSD activity in the hippocampus” value in data set [13] (21 or 42 days) was “not altered”. Also, the “conversion of corticosterone to 11-dehydrocorticosterone in liver homogenates” value in [13] (42 days of treatment, prolonged (60 min) incubation) is reported as 12.2±14.7%. The “liver 11β-HSD1 activity in adrenalectomised rats” value in data set [13] (adrenalectomised, 21 days) is “reduced”.
Regarding `CC1(C)[C@@H](O)CC[C@]2(C)[C@H]3C(=O)C=C4[C@@H]5C[C@@](C)(C(=O)O)CC[C@]5(C)CC[C@@]4(C)[C@]3(C)CC[C@@H]12` [glycyrrhetinic acid], the “effect on 11β-reductase in vivo” value in data set [3] was “no effect”.

These data come from US6838253B2, “Regulation of intracellular glucocorticoid concentrations” (The University of Edinburgh, priority 1995, dated 2005).
